Values of other authors in US20190105278A1, “SHELLAC MICROCAPSULE FORMULATIONS AND COMPOSITIONS” (CONARIS RESEARCH INSTITUTE AG, priority 2016, published 2019).

Conditions: EFSA; for acceptable daily intake (ADI): preparations with at least 90% purity

CC(=O)Nc1ccc(S(=O)(=O)[O-])c2cc(S(=O)(=O)[O-])c(N=Nc3ccc(N=Nc4ccc(S(=O)(=O)[O-])cc4)c4ccc(S(=O)(=O)[O-])cc34)c(O)c12.[Na+].[Na+].[Na+].[Na+] [brilliant black BN]
upper systemic intake limit: 5 mg/kg
acceptable daily intake (ADI): 5 mg/kg body weight

CCN(CC)c1ccc(C(=C2C=CC(=[N+](CC)CC)C=C2)c2cc(O)c(S(=O)(=O)[O-])cc2S(=O)(=O)[O-])cc1.CCN(CC)c1ccc(C(=C2C=CC(=[N+](CC)CC)C=C2)c2cc(O)c(S(=O)(=O)[O-])cc2S(=O)(=O)[O-])cc1.[Ca+2] [patent blue V]
upper systemic intake limit: 5 mg/kg
acceptable daily intake (ADI): 5 mg/kg body weight

O=C1/C(=C2\Nc3ccc(S(=O)(=O)[O-])cc3C2=O)Nc2ccc(S(=O)(=O)[O-])cc21.[Na+].[Na+] [indigo carmine]
acceptable daily intake (ADI): 5 mg/kg body weight
